Assay results: patent US7943616B2, “Azaindoles for inhibiting aurora2 and other kinases” (Aventis Pharmaceuticals Inc., priority 2001, dated 2011)

SMILES	melting point
c1cncc(OCCCn2cc(-c3cc4nccnc4[nH]3)c3ccccc32)c1 [Example 6, 6-{1-[3-(Pyridin-3-yloxy)-propyl]-1H-indol-3-yl}-5H-pyrrolo[2,3-b]pyrazine]	208 to 209 °C
Cn1cc(-c2cc3nccnc3[nH]2)c2cc(O)ccc21 [Example 7, 1-methyl-3-(5H-pyrrolo[2,3-b]pyrazin-6-yl)-1H-indol-5-ol]	289 to 290 °C
COc1ccc2[nH]cc(-c3cc4nccnc4[nH]3)c2c1 [Example 11, 6-(5-methoxy-1H-indol-3-yl)-5H-pyrrolo[2,3-b]pyrazine]	268 to 271 °C
Cn1cc(-c2cc3cccnc3[nH]2)c2cc(N)ccc21 [Example 18, 1-Methyl-3-(1H-pyrrolo[2,3-b]pyridin-2-yl)-1H-indol-5-ylamine]	247 to 248 °C
CC(C)(C)c1ccc(-c2[nH]c3nccnc3c2CCC#N)cc1 [Example 23]	215 to 216 °C

Now from value to compound:

melting point	SMILES
187 to 189 °C	CC(C)(C)c1ccc(-c2[nH]c3nccnc3c2CCCO)cc1 [Example 26, 3-[6-(4-tert-Butyl-phenyl)-5H-pyrrolo[2,3-b]pyrazin-7-yl]-propan-1-ol]
183 to 184 °C	CCOC(=O)COc1cc(-c2cc3nccnc3[nH]2)ccc1OC [Example 27, [2-Methoxy-5-(5H-pyrrolo[2,3-b]pyrazin-6-yl)-phenoxy]acetic Acid Ethyl Ester]
> 320 °C	COc1ccc2[nH]cc(-c3cc4c(C(N)=O)ccnc4[nH]3)c2c1 [Example 42, 2-(5-Methoxy-1H-indol-3-yl)-1H-pyrrolo[2,3-b]pyridine-4 Carboxamide]
